Here are results for 3 compounds from patent publication US20210338686A1, “COMBINATION CANCER THERAPY WITH PENTAAZA MACROCYCLIC RING COMPLEX AND PLATINUM-BASED ANTICANCER AGENT” (Galera Labs, LLC, priority 2018, published 2021).

Molecules are shown by their SMILES.

For assay [1], the system named is experimental model of colitis. Particulars: rats; Cuzzocrea et al. 2001; cited from earlier work.
For assay [2], the system named is acute, radiation-induced oral mucositis. The conditions noted are these: hamster oral mucositis; Murphy et al. 2008; cited from earlier work.
Assay [3] deals with lethal total body irradiation. The conditions noted are these: adult mice, Thompson et al. 2010; cited from earlier work.
Another assay relates to inflammation. Particulars: rat model; Salvemini et al. 1999; cited from earlier work.
Assay [4] has as its system collagen-induced arthritis. Particulars: rat collagen-induced arthritis; Salvemini et al. 2001; cited from earlier work.
In assay [5] the test system is H460 human non-small cell lung carcinoma (NSCLC) cells. The experiment in a line: Survival of H460 cells in culture with GC4419 and cisplatin. The conditions noted are these: 24 μM GC4419 added to cisplatin (indicated concentrations), 120 hrs, vs cisplatin alone; FIG. 1. It is filed as cell-based. Here is the method:
After 120 hrs the surviving fraction of cells was determined.

In assay [6] the test system is H1299 human NSCLC cells, modified to inducibly overexpress catalase (CAT) (H1299CAT). The experiment in a line: Survival of H1299CAT cells with GC4419, cisplatin and catalase overexpression. It is filed as cell-based. The conditions noted are these: 24 μM GC4419 added to cisplatin, 120 hrs, FIG. 2. An excerpt:
CAT overexpression in this line (H1299CAT) was induced by administration of doxycycline, which turned on transcription of the inserted catalase genes.

Assay [7] deals with PARP (poly (ADP ribosyl) polymerase) in H460 NSCLC cells. The experiment in a line: PARP activation in H460 cells (Western blot, 89 kd active / 116 kd inactive form). It is filed as cell-based, human. Particulars: 24 hr. An excerpt: PARP is a nuclear enzyme involved in DNA repair of single strand breaks and is activated following cell stress including chemotherapy and irradiation.

Assay [8] concerns PARP in H1299 (wild type) NSCLC cells. Put plainly: PARP activation in H1299 (wild type) cells (Western blot). Particulars: 24 hr. The assay is classed as cell-based, human.
Another assay concerns PARP in H1299CAT cells. Put plainly: PARP activation in H1299CAT cells with doxycycline induction of CAT overexpression. It is filed as cell-based, human. Particulars: CAT induced with doxycycline, 24 hr. The source says:
When treated with doxcycline, H1299CAT cells express greater levels of human catalase (CAT) than the “parent” cells, H1299 (wild type), eliminating all or part of the H2O2 generated from superoxide by GC4419 or other Mn pentaazamacrocyclic dismutase mimetcs.

Assay [9] deals with H460 and H1299 (wild type) cells. Put plainly: Total reactive oxygen species (CellROX probe, flow cytometer). Particulars: FIGS. 7A-7D. The assay is classed as cell-based, human. Here is the method:
After the treatments and incubations CellROX fluorogenic probes for total ROS were added for 30 minutes continued incubation and the CellROX signal was measured using a flow cytometer.

For assay [10] the test system is unchanged. The experiment in a line: Mitochondrial superoxide (MitoSOX probe, flow cytometer). The assay is classed as cell-based, human. Particulars: FIGS. 8A-8D.
The test system is the same in assay [11]. Put plainly: Hydrogen peroxide (P0-1 probe). The assay is classed as cell-based, human. Particulars: FIGS. 9A-9D.
Assay [12] relates to cisplatin-induced acute kidney injury (AKI) model, male C57BL/6J mice. The experiment in a line: Cisplatin-induced acute kidney injury (AKI) model in mice. It is filed as in vivo. An excerpt:
4 month old male C57BL/6J mice (young) were purchased from Jackson Laboratories and 18 month old mice (old) were obtained as collaboration with Dr. Amy Sindler (University of Iowa) from the National institute of Aging. All mice were maintained in accordance with ACURF approval #4121235 at the University of Iowa Animal Care facility. Mice were maintained on normal diets and water ad libitum through the course of the experiment.
Animals were weighed every other day following the start of treatment with GC4419.

Assay [13] relates to athymic female Nu/Nu (nude) mice implanted with SQ20B human head and neck squamous cell carcinoma cells. Put plainly: Cisplatin-induced hematotoxicity in nude mice bearing SQ20B tumors. The conditions noted are these: 10 mg/kg GC4419 every day added to cisplatin + IR. It is filed as in vivo. Here is the method: 7 week old athymic female Nu/Nu (nude) mice were implanted in a hind leg with SQ20B human head and neck squamous cell carcinoma cells. […] Mice were assessed for blood counts by tail vein blood collection either 2 days or 2 weeks after the treatment period.

Assay [14] relates to VEGFr inhibitor-induced pulmonary disease. Particulars: rat model; Tuder et al. 2003; cited from earlier work.
For assay [15], the system named is oral mucositis in head-and-neck cancer patients. Particulars: head-and-neck cancer patients undergoing chemoradiation therapy; Anderson 2015; cited from earlier work.
Setting [16] is: 24 μM GC4419, both cancer cell lines.
The mark [17] stands for this setting: 10 mg/kg GC4419 daily from 4 days prior to 10 mg/kg cisplatin, 72 hours after cisplatin, FIG. 10A.
Setting [18] is: 1 μM cisplatin or cisplatin plus 6 Gy IR.

On to `[Cl-].[Cl-].[Mn+2].c1cc2nc(c1)CN[C@@H]1CCCC[C@H]1NCCN[C@@H]1CCCC[C@H]1NC2` [GC4403], for which the “injury to the colon” value in assay [1] is given as “very significantly reduce the injury to the colon”. For the same compound, the radiation damage entry in assay [2] and in assay [3] was “attenuate the radiation damage” in each case. Moreover, the inflammation result in the assay on inflammation is “inhibit inflammation”. In addition, the joint disease entry in assay [4] is “prevent joint disease”.
In the case of `[Cl][Mn][Cl].c1cc2nc(c1)CN[C@H]1CCCC[C@@H]1NCCN[C@H]1CCCC[C@@H]1NC2` [GC4419], the “surviving fraction of cells” value was “decreased the surviving fraction of H460 cells” in assay [5]; “abrogated the GC4419 contribution to cisplatin response” in [6] (with CAT overexpression (doxycycline induced)); “decreased the surviving fraction” in assay [6] (without CAT overexpression (wt), vs cisplatin alone). In addition, the “PARP activity (ratio of 89 kd active form to 116 kd inactive form)” value in [7] (24 μM GC4419 added to 1 μM cisplatin, vs cisplatin, FIG. 3) was “further and significantly (p<0.01) increased PARP activity”; in assay [7] (24 μM GC4419 added to 6 Gy IR + 1 μM cisplatin, FIG. 5), “significantly increased (p<0.01)”; in [7] (24 μM GC4419 added to 6 Gy IR, vs radiation alone, FIG. 5), “significantly increased PARP activity over that seen with radiation alone”; in [8] (24 μM GC4419 added to 10 μM cisplatin, vs cisplatin, FIG. 4), “further and significantly p<0.01) increased PARP activity”; in assay [8] (24 μM GC4419 added to 6 Gy IR + 1 μM cisplatin, FIG. 6A) it was “significantly increased (p<0.0.05)”; in assay [8] (24 μM GC4419 added to 6 Gy IR, vs radiation alone, FIG. 6A), “significantly increased PARP activity over that seen with radiation alone”. Also, the “PARP activation response to cisplatin” value with PARP in H1299CAT cells (24 μM GC4419 + 1 μM cisplatin, p<0.01, FIG. 6B) was “reduced the PARP activation response”. Besides, the “PARP activation response to IR+cisplatin” value in the assay with PARP in H1299CAT cells (24 μM GC4419 + 6 Gy IR + 1 μM cisplatin, p<0.001, FIG. 6C) is reported as “reduced the PARP activation response”. Besides, the “PARP activation response to IR” value in the assay with PARP in H1299CAT cells (24 μM GC4419 + 6 Gy IR, p<0.05, FIG. 6C) is given as “reduced the PARP activation response”. The “total ROS (CellROX signal)” value in [9] (24 μM GC4419 added to cisplatin therapy) was “synergistic effect on total ROS”; in assay [9] (24 μM GC4419 used alone, either cancer cell line), “little effect on total ROS”. Besides, the “basal levels of mitochondrial superoxide (MitoSOX signal)” value in assay [10] (setting [16]) was “significantly reduced the basal levels of mitochondrial superoxide”. Further, in [10] (24 μM GC4419 added to cisplatin or cisplatin plus IR), the “mitochondrial superoxide (MitoSOX signal)” value is “significantly reduced the increase in mitochondrial superoxide”. Further, the “basal levels of H2O2” value in assay [11] (setting [16]) is “significantly increases both the basal levels of H2O2”. The H2O2 result in [11] (24 μM GC4419 added to cisplatin or cisplatin plus IR, both cancer cell lines) is recorded as “significantly further increases the increase in H2O2”. For the same compound, in assay [12] (10 mg/kg GC4419 daily + 10 mg/kg cisplatin, old mice, FIG. 10D), the survival entry is given as “prevented cisplatin mortality in the old mice”. For the same compound, the body weight entry in assay [12] (10 mg/kg GC4419 daily + 10 mg/kg cisplatin, young and old mice, FIG. 10C) was “reduced the amount of weight loss in both sets of mice”. The “kidney injury biomarkers KIM1 and NGAL” value in assay [12] (10 mg/kg GC4419 daily + 10 mg/kg cisplatin, FIG. 10B) is given as “prevented that injury”. For the same compound, in assay [12] (setting [17]), the creatinine level result is recorded as “completely prevented these increases”. Besides, the “whole blood urea nitrogen (BUN) level” value in [12] (setting [17]) is listed as “completely prevented these increases”. Further, the “leukocyte (WBC) and lymphocyte count” value in [13] (2 days and 2 weeks after the end of treatment, FIG. 11B) is “stimulated leukocyte (WBC) and proportionally lymphocyte subset production”. The neutrophil percentage result in [13] (FIG. 11C) is “maintained neutrophil percentage at apparently normal levels”. Also, the eosinophil percentage result in assay [13] (FIG. 11D) is on record as “maintained eosinophil percentage at apparently normal levels”. In assay [13] (two days after the end of treatments, FIG. 11A), the platelets result is given as “significantly restored platelet levels”. For the same compound, in assay [14], the “VEGFr inhibitor-induced pulmonary disease” value is given as “attenuate VEGFr inhibitor-induced pulmonary disease”. In addition, the oral mucositis result in [15] is listed as “reduce oral mucositis”.
On to `N.N.[Cl][Pt][Cl]` [cisplatin, reference compound], for which the “total ROS (CellROX signal)” value in assay [9] (setting [18]) is given as “increased total ROS”. The “mitochondrial superoxide (MitoSOX signal)” value in assay [10] (setting [18]) is listed as “increase in mitochondrial superoxide”. Further, the H2O2 entry in assay [11] (setting [18]) is recorded as “increase in H2O2”.
